For one series, the system named is serum peroxide. In words: Adjuvant induced arthritis model, serum peroxide. Type of series: in vivo, Sprague Dawley rats. As to conditions: AIA rats, daily intraperitoneal; Patuletin 25 mg/kg, indomethacin 5 mg/kg. The procedure:
All studies were carried out using Female Sprague Dawley (SD) rats weighing 150-250 gms. Animals were kept at 21±2° C. and on a 12-h light/dark cycle, received standardized pelleted diet and tap water. Experiments were performed under the ethical guidelines of the International Association for the study of pain in conscious animals. Each group contains 12 animals with randomly distributed weights into each treatment group.
Arthritis was induced by injecting freshly prepared 100 μL of 1 mg suspension of lyophilized Mycobacterium tuberculosis H37Ra (MT H37Ra; DIFCO Laboratories, Detroit, Mich., USA), subcutaneously at the rat tail base using sterile hypodermic needle. […]
Peroxide (PO) and nitric oxide (NO), in serum were determined in the serum samples of both the normal and arthritic groups, using quantitative colorimetric assay kits, i.e., the Quantichrom ™ Nitric Oxide Assay Kit, and the Quantichrome™ Peroxide assay kit Diox-250 (BioAssay Systems, Hayward, Calif., USA). […] The samples were analyzed in duplicates using 96-well plate and the plate was read at 540 nm. The Quantichrome™ Peroxide assay kit Diox −250 system is an improved method which utilizes the oxidation of Fe^++ by peroxide present in the analyzed sample resulting in formation of purple complex that gives the accurate measure of peroxide level in the sample when read at 540-610 nm.

Another series concerns TNF-α production. In words: TNF-α production from PMA differentiated, LPS activated THP-1 cells (ELISA). Type of series: cell-based, human. Particulars: Homo sapiens, 4 h, read-out: inhibition of TNF-α production (IC50). The procedure: The symbol * and δ represents the P≦0.03 and P≦0.006, respectively.
FIG. 2 depicts the effect of pentoxyfillin (PTX) on TNF-α production (pg/mL) Human monocytic leukemia THP-1 cells were differentiated and activated with 20 ng/mL of PMA and 50 ng/mL of LPS, respectively and incubated with different concentrations of PTX for 4h, the supernatant was analyzed for the level of TNF-α by ELISA. The symbol * represents P≦of 0.03.
THP-1 (human monocytic leukemia) cells were maintained in RPMI-1640 supplemented with 10% FBS, 2 mmol/L glutamine, 5.5 mmol/L glucose, 50 μmol/L mercaptoethanol, 1 mmol/L sodium pyruvate, and 10 mmol/L HEPES and incubated at 37° C. in 5% CO2. Cells were grown in […] culture flask until they attained 70% confluency. Cells were then plated in 24-well tissue culture plates at a concentration of 2.5×10^5 cells/mL. Cells were differentiated into macrophages using PMA at a final concentration of 20 ng/mL and further incubated at 37° C. in 5% CO2 environment for 24 h. […] After addition of the compound cells were then incubated for 4 h for TNF-α production and 18 h for IL-1β production at 37° C. in 5% CO2. The supernatants were harvested and analyzed for the level of TNF-α and IL-1β, by human TNF-α and IL-1β Duo set ELISA kits, and according to the manufacturer's instructions.
(In general: ELISA stands for enzyme-linked immunosorbent assay.)

A short description of series [1]: MTT cytotoxicity assay, CC1. Type of series: cell-based. As to conditions: rat, CC1 rat epithelial liver cells, 48 h incubation, read-out: Cytotoxicity (IC50 μg/mL) CC1 cells. The procedure:
Cell cytotoxicity assay was performed using three different cell lines NIH 3T3 (mouse embryo, fibroblast cells), CC1 (rat, epithelial, liver cell) and MDBK (bovine kidney) cells using MTT (3-[4,5-dimethylthiazole-2-yl]-2,5-diphenyl-tetrazolium bromide) colorimetric assay. Briefly 3T3 were grown in DMEM, supplemented with 10% of fetal bovine serum (FBS), and 1% penicillin-streptomycin whereas CC1 (rat epithelial liver cells) were cultured in EMEM, 2 mM Glutamine, 1% Non-Essential Amino Acids (NEAA), 20 mM HEPES, 10% Foetal Bovine Serum (FBS) and 1% penicillin-streptomycin, and MDBK cells were grown in 10% of fetal bovine serum (FBS) in 75 cm^2 flask, and incubated in 5% CO2 incubator at 37° C. until they attain 70% confluency. Cells were then harvested by centrifuging at 200 g for 5 min at 25° C., counted using heamocytometer and their concentration was adjusted to 6×10^4 cells/mL. 100 μL of Cells were then plated in 96 well plate and incubated overnight. Next day the supernatant was carefully removed and 200 μL of fresh medium was added with three different concentration of compound (1, 10, 50) μg/mL. […] The extent of MTT reduction to formazan within cells was calculated by measuring the absorbance at 540 nm; using a micro plate reader (Spectra Max plus 340, Molecular Devices, Calif., USA). […] The percent inhibition was calculated by using the following formula: […]
For orientation: Formazan colour is commonly taken as a measure of viable cells.

Series [2] relates to non-activated Jurkat cell proliferation. In words: Jurkat T cell proliferation. Particulars: Homo sapiens; non-activated Jurkat cells; read-out: Jurkat T cell Proliferation (IC50 μg /mL). Type of series: cell-based. The procedure:
In order to monitor the effect of this compound on cellular immune response particularly on T cells, the compound was tested on thymidine incorporated T cell proliferation assay.

The structures appear in SMILES notation. ≈ marks a conversion by molar mass, not a printed value. Entries after “also recorded” stand apart in the source; their conditions may differ.

For the compound `COc1c(O)cc2oc(-c3ccc(O)c(O)c3)c(O)c(=O)c2c1O` [Patuletin, 3,5,7,3′,4′-pentahydroxy-6-methoxy flavones], in the series with serum peroxide, the “level of peroxide in serum versus arthritic control group” value was “decrease; also recorded: non-significant reduction”. The IC50 in the series with TNF-α production is 2.5 µg/mL (≈ 7.52 µM); in series [2], 3.47 µg/mL (≈ 10.4 µM). Also, the IC50 at 48 h in series [1] came out at 5.2 µg/mL (≈ 15.7 µM).

The record behind these values is patent publication US20150025131A1 (priority 2013, published 2015).
